# Assay results from patent US20100021918A1, “METHOD FOR ASSAYING ACTION OF ANTITUMOR AGENT USING SPLICING DEFECTS AS INDEX” (Eisai R&D Management Co., Ltd., priority 2007, published 2010).
# Tested on: p27/Kip1
# Test: Western blotting of abnormal protein from pre-mRNA, p27/Kip1
# Format: cell-based, human
# Conditions: HeLa cells, about 100 nM, 24 hours; untreated: only a 27 kDa band (FIG. 4)
# Description: Consequently the protein may serves as a protein marker to monitor the action of (8E,12E,14E)-7-((4-cycloheptylpiperazin-1-yl)carbonyl)oxy-3,6,16,21-tetrahydroxy-6,10,12,16,20-pentamethyl-18,19-epoxytricosa-8,12,14-trien-11-olide. Whether the pre-mRNA-dependent abnormal protein practically emerged upon the treatment of (8E,12E,14E)-7-((4-cycloheptylpiperazin-1-yl)carbonyl)oxy-3,6,16,21-tetrahydroxy-6,10,12,16,20-pentamethyl-18,19-epoxytricosa-8,12,14-trien-11-olide was examined by using cancer cells (HaLa). […] Based on these findings, the protein generated from pre-mRNA can serve as the marker as well.
# About 3×10^5 cells of HeLa cells were first seeded in a 24-well culture plate (bottom area: 2 cm^2), and 18 hours later, the compound was added thereto at the indicated concentration, followed by additional 24-hour culturing. The cells were washed once with PBS(−), and then were lysed by treating with 0.2 ml of M-PER reagent (PIERCE) for 30 minutes. The collected lysate was filtered with a 0.45 μm filter to remove insoluble matters and then combined with an equal amount of 2×SDS-PAGE sample solution. The mixture was heated to be denatured at 95° C. for five minutes to yield a sample to be analyzed.
# The analysis sample (15 μl each) was separated with 5-20% SDS-PAGE and transferred onto a PVDF membrane (Hybond-P: GE-Amersham). […]
smiles,measurement,value
"CCC(O)C(C)C1OC1CC(C)(O)/C=C/C=C(\C)C1OC(=O)CC(O)CCC(C)(O)C(OC(=O)N2CCN(C3CCCCCC3)CC2)/C=C/C1C (stereo not shown) [E7107, (8E,12E,14E)-7-((4-cycloheptylpiperazin-1-yl)carbonyl)oxy-3,6,16,21-tetrahydroxy-6,10,12,16,20-pentamethyl-18,19-epoxytricosa-8,12,14-trien-11-olide]",p27/Kip1 bands in Western blot,appearance of a band with about 22 kDa was confirmed
